Values of other authors as cited in patent US8153634B2, “Carbinol derivatives having cyclic linker” (Kowa Company, Ltd., priority 2008, dated 2012).

Tested on: LXRβ (versus LXRα)
Settings: reported in non-patent document 22

O=C(O)Cc1ccc(COc2cccc(-c3c(Cc4ccccc4)cnc4c(C(F)(F)F)cccc34)c2)cc1 [WAY-254011]
LXRβ-selective binding affinity, α/β ratio: 1 to 5
